Measured values taken from PubChem BioAssay (NCI).
Several values for one entry are separate records, joined by “and”; a condition that tells them apart may be missing. Identical values can stand only once.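 Exposure lasted 48 hours, with cells grown in 96-well plates and compounds tested at five concentrations. GI50: concentration for 50% inhibition of growth. TGI: concentration producing complete growth inhibition.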

Assays:
Assay in all cases: NCI-60 cell line screen, 48 h
U251 CNS = tested on: U251 CNS
A498 renal = tested on: A498 renal
OVCAR-8 ovarian = tested on: OVCAR-8 ovarian
HCT-15 colon = tested on: HCT-15 colon
LOX IMVI melanoma = tested on: LOX IMVI melanoma
MCF7 breast = tested on: MCF7 breast
MOLT-4 leukemia = tested on: MOLT-4 leukemia
CAKI-1 renal = tested on: CAKI-1 renal
CCRF-CEM leukemia = tested on: CCRF-CEM leukemia
BT-549 breast = tested on: BT-549 breast

SMILES | TGI (U251 CNS) | TGI (A498 renal) | TGI (OVCAR-8 ovarian) | TGI (HCT-15 colon) | TGI (LOX IMVI melanoma) | TGI (MCF7 breast) | TGI (MOLT-4 leukemia) | TGI (CAKI-1 renal) | TGI (CCRF-CEM leukemia) | TGI (BT-549 breast) | GI50 (A498 renal) | GI50 (HCT-15 colon) | GI50 (LOX IMVI melanoma) | GI50 (MCF7 breast) | GI50 (MOLT-4 leukemia) | GI50 (CAKI-1 renal) | GI50 (CCRF-CEM leukemia)
CO[C@H](C)[C@](O)(C(=O)OCC1=CCN2CC[C@@H](O)[C@H]12)C(C)C | > 100 µM | > 100 µM | > 100 µM | > 100 µM | > 100 µM | > 100 µM | > 100 µM | > 100 µM | > 100 µM | > 100 µM | – | – | – | – | – | – | –
OC(CCN1CCN(CCOC(c2ccc(F)cc2)c2ccc(F)cc2)CC1)c1ccc(Br)cc1 (configuration not stated) | 16.4 µM | 8.04 µM | 4.1 µM | 8.25 µM | 4.07 µM | 9.85 µM | 7.73 µM | 5.71 µM | 11.7 µM | 12.5 µM | – | – | – | – | – | – | –
O=c1cccc2n1CC1CNCC2C1 (configuration not stated) | > 100 µM | > 100 µM | > 100 µM | > 100 µM | > 100 µM | > 100 µM | > 100 µM | > 100 µM | > 100 µM | > 100 µM | – | – | – | – | – | – | –
C[C@@](Br)(C(=O)O)[C@H](Br)C(=O)O | > 100 µM | > 100 µM | > 100 µM | > 100 µM | > 100 µM | > 100 µM | > 100 µM | > 100 µM | > 100 µM | > 100 µM | – | – | – | – | – | – | –
COc1ccccc1Cn1c2c(c3cc(O)ccc31)C(=O)c1ccccc1C2=O | 64.9 µM | > 100 µM | 61.9 µM | > 100 µM | > 100 µM | 96.7 µM | > 100 µM | 69.7 µM | > 100 µM | > 100 µM | – | – | – | – | – | – | –
Cn1c2ccccc2c2c3c(=O)[nH][nH]c(=O)c3c3c4ccccc4n(C)c3c21 | > 100 µM | > 100 µM | > 100 µM | > 100 µM | > 100 µM | > 100 µM | > 100 µM | > 100 µM | > 100 µM | > 100 µM | – | – | – | – | – | – | –
Brc1ccc(/C(N=N/C(=N\Sc2ccccc2)c2ccc(Br)cc2)=N/Sc2ccccc2)cc1 | > 100 µM | > 100 µM | > 100 µM | > 100 µM | > 100 µM | > 100 µM | > 100 µM | > 100 µM | > 100 µM | > 100 µM | – | – | – | – | – | – | –
Cc1ccc(S(=O)(=O)N2CCc3cc(O)c([N+](=O)[O-])cc32)cc1 | > 100 µM | > 100 µM | > 100 µM | > 100 µM | > 100 µM | > 100 µM | > 100 µM | > 100 µM | > 100 µM | > 100 µM | – | – | – | – | – | – | –
CCC(C)C(NC(=O)C(CCCC[N+](=N)N)NC(=O)C(CCCC[N+](=N)N)NC(=O)c1ccc(OC)cc1)C(=O)NC(CCCC[N+](=N)N)C(=O)N1CCCC1C(=O)NC(CCCCN)C(=O)NC(CC(C)C)C(N)=O (configuration not stated) | > 100 µM | > 100 µM | > 100 µM | > 100 µM | > 100 µM | > 100 µM | > 100 µM | > 100 µM | > 100 µM | > 100 µM | – | – | – | – | – | – | –
C=C1C[C@@H]2CC[C@@]34CC5O[C@H]6C(O[C@H]7CC[C@H](CC(=O)O[C@@H]8[C@@H](C)[C@@H]9O[C@@H]%10C[C@]%11(C[C@@H]%12O[C@]%13(C[C@H](C)[C@@H]%14O[C@@H]%15CC(C(COC(C)=O)OC(C)=O)O[C@@H]%15C[C@@H]%14O%13)C[C@H](C)[C@@H]%12O%11)O[C@@H]%10C[C@@H]9O[C@H]8CC8O[C@@H](CC[C@@H]1O2)C[C@@H](C)C8(O)CO)O[C@@H]7[C@@H]6O3)[C@H]5O4 (some centres not stated) | > 1 µM | > 1 µM | > 1 µM | > 1 µM | > 1 µM | > 1 µM | > 1 µM | > 1 µM | > 1 µM | 0.751 µM | – | – | – | – | – | – | –
C[C@@H](CCO)OC1OC(COC(=O)C(C)(C)C)C(OC(=O)C(C)(C)C)C(OC(=O)C(C)(C)C)C1OC(=O)C(C)(C)C (some centres not stated) | > 100 µM | > 100 µM | > 100 µM | > 100 µM | > 100 µM | > 100 µM | > 100 µM | > 100 µM | > 100 µM | > 100 µM | – | – | – | – | – | – | –
O=C(O)CCSc1ncnc2nc[nH]c12 | > 100 µM | > 100 µM | > 100 µM | > 100 µM | > 100 µM | > 100 µM | > 100 µM | > 100 µM | > 100 µM | > 100 µM | – | – | – | – | – | – | –
COC(=O)c1ccc2cc(O)ccc2c1 | > 100 µM | > 100 µM | > 100 µM | > 100 µM | > 100 µM | > 100 µM | > 100 µM | > 100 µM | > 100 µM | > 100 µM | – | – | – | – | – | – | –
C=CCN(c1cc(OC)c2[nH]c(C(=O)O)c(C)c2c1[N+](=O)[O-])S(C)(=O)=O | > 100 µM | > 100 µM | > 100 µM | > 100 µM | > 100 µM | > 100 µM | > 100 µM | > 100 µM | > 100 µM | > 100 µM | – | – | – | – | – | – | –
O=C(CCl)Nc1ccc(C(=O)N/N=C/c2ccc(Cl)cc2)cc1 | 3.61 µM and 3.24 µM | 4.85 µM and 26.7 µM | 5.29 µM and 6.97 µM | 3.74 µM and 9.73 µM | 3.5 µM and 2.91 µM | 22.6 µM | 6.28 µM and 5.35 µM | 4.39 µM and 3.35 µM | 5.32 µM and 4.46 µM | 3.53 µM and 4.11 µM | 13 µM | 1.48 µM | 1.72 µM | 10 µM | 2.44 µM | 1.87 µM | 2.23 µM
CC(=O)Nc1ccc2c(c1)nc1c3ccccc3ccn21 | > 100 µM | > 100 µM | > 100 µM | > 100 µM | > 100 µM | > 100 µM | > 100 µM | > 100 µM | > 100 µM | > 100 µM | – | – | – | – | – | – | –
CC(C)(C)C#CI1OC(=O)c2ccccc21 | 11.2 µM | 24 µM | 23.3 µM | 11.6 µM | 3.89 µM | 15.4 µM | 10 µM | 7.21 µM | 6.09 µM | 11.7 µM | – | – | – | – | – | – | –
O=C1CCCC2=C1CC1=C(CCCC1=O)N2c1ccc(-c2ccccc2)cc1 | > 100 µM | > 100 µM | > 100 µM | > 100 µM | > 100 µM | > 100 µM | > 100 µM | > 100 µM | > 100 µM | > 100 µM | – | – | – | – | – | – | –
Brc1ccc2[nH]cc(-c3csc(-c4c[nH]c5ccc(Br)cc45)n3)c2c1 | 3.61 µM | 6.03 µM | 7.22 µM | 4.5 µM | 3.21 µM | 12.9 µM | 3.45 µM | 5.31 µM | 3.93 µM | 18 µM | – | – | – | – | – | – | –
CN(C)CN1C(=O)/C(=N\n2c(-c3ccncc3)n[nH]c2=S)c2ccccc21 | > 100 µM | > 100 µM | 65.2 µM | > 100 µM | 62.2 µM | > 100 µM | 45.4 µM | > 100 µM | > 100 µM | > 100 µM | – | – | – | – | – | – | –
COC(=O)[C@@H]1[C@H]2CC[C@]3(C)[C@@H](OC(C)=O)CC[C@H]3[C@@H]2CC[C@H]1C1(C)SCCS1 | 54.4 µM | > 100 µM | 70.6 µM | > 100 µM | 34.6 µM | 83 µM | 59.3 µM | > 100 µM | 86.4 µM | 46.2 µM | – | – | – | – | – | – | –
O=C1c2cccnc2C(=O)c2c1nc1ccccc1c2-c1ccc2c3c(nc4ccccc42)C(=O)c2cccnc2-c13 | 9.01 µM | 6.05 µM | 2.59 µM | 1.76 µM | 9.12 µM | 8.05 µM | 5.66 µM | 10 µM | 15.5 µM | 12.7 µM | – | – | – | – | – | – | –
